One block for each compound: values may come before it.
Experiments:
hMAT2A [1] = target: T1, hMAT2A (Homo sapiens, UniProt P31153); assay: Phosphate Sensor Fluorescence Assay (MAT2A enzyme inhibition); format: biochemical; design: Human MAT2A: Cepter, amino acids 1-395; purchased Cepter clone ID 329, lot 00023-123; clone ID 334, lot 00023-148; conditions: L-methionine 500 uM, ATP 500 uM, 1 hour room temperature
Description: (§1) The ability of the compound of present disclosure to inhibit MAT2A enzyme was determined using the Malachite Green or Phosphate Sensor Fluorescence Assay described below.
B. Phosphate Sensor Fluorescence Assay
MAT2A enzyme is incubated with a test compound in DMSO or DMSO and its substrates (L-methionine and ATP) in a microtiter plate. The enzymatic reaction is stopped by the addition of Working Phosphate Sensor Mixture. The plate is analyzed for fluorescence at 450 nm.
Test compounds or DMSO were added to the appropriate well suing D300e digital dispenser. 5 μl/well of Assay Buffer was added to the wells corresponding to the negative control and 5 μl/well of MAT2A was added to all the wells except for those corresponding to the negative control. After incubating the plate at room temperature for 15 minutes, 5 μl/well of the 1 mM L-methionine/1 mM ATP mixture was added to all wells. The plate was centrifuged at 1000 rpm for 1 minute and then incubated at room temperature for 1 hour. 5 μl of the Working Phosphate Sensor Mixture was added to all wells and the plate was centrifuged at 1000 rpm for 1 minute. The plate was read for fluorescence at 450 nm after exciting at 430 nm.
Percent inhibition was calculated in Chemical and Biological Information System (CBIS), (ChemInnovation Software Inc.). […]

hMAT2A [2] = target: T1, hMAT2A; assay: Malachite Green Assay (MAT2A enzyme inhibition); format: biochemical; design: amino acids 1-395; purchased Cepter; conditions: hMAT2A 50 nM, substrates 500 uM each, reaction time 1 hour, 23° C.
Description: as §1
L-methionine Substrate: Alfa Aesar catalog #J61904
ATP Substrate: Alfa Aesar cat #J60336
Malachite Green Detection Reagent: Millipore Sigma catalog #MAK307-1KT
Assay buffer: 50 mM Tris, pH 7.5/50 mM KCl/10 mM MgCl2/0.01% Brij-35/1 mM DTT/0.1% BGG
The plate was centrifuged at 1000 rpm for 1 minute and then incubated at room temperature for 1 hour. 5 μL of malachite green detection reagent was added to all the test wells and the plate was centrifuged at 1000 rpm for 1 minute and then incubated at room temperature for 30 minutes. The plate was read for absorbance at 620 nm on a plate reader (e.g., Infinite M1000).

T1 sequence (P31153 whole entry, the tested form may be a part): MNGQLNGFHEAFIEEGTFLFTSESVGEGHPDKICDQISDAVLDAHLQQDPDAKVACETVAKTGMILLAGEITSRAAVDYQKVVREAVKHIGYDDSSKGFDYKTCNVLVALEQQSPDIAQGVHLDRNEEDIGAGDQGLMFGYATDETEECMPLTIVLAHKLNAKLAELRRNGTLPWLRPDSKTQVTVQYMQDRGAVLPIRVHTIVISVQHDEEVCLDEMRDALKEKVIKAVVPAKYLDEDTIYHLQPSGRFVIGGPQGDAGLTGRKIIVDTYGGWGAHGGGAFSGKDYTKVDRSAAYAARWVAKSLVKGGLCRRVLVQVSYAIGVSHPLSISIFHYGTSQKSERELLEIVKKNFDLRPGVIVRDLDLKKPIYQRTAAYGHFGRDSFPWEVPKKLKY

IC50 (hMAT2A [1]; numeric bound): > 10 µM
Compound: 7-chloro-1-(2-fluoro-3- metho xyphenyl)-4- hydroxyhydroquinazolin-2-one [Example 332]

IC50 (hMAT2A [2]): 1 to 10 µM
Compound: Nc1nc(=O)n(-c2ccccc2)c2cc(Cl)ccc12 [Example 59, 4-amino-7-chloro-1-phenylquinazolin-2(1H)-one]

IC50 (hMAT2A [1]; class symbols): < 0.2 µM
Compound: 1[2-(difluoromethoxy)(3-pyridyl)]-7- cyclopropyl-4-[(cyclopropylmethyl)- amino]hydroquinazolin-2-one [Example 416]

Source: US20260217709A1, “2-OXOQUINAZOLINE DERIVATIVES AS METHIONINE ADENOSYLTRANSFERASE 2A INHIBITORS” (IDEAYA BIOSCIENCES, INC., priority 2018, published 2026)
